One series in a line: clinical. The following applies: human, in vivo.
The subject of series [1] is HMG-CoA reductase. The following applies: following intraduodenal administration of dihydroxy open acid simvastatin.
Series [2] concerns HMG-CoA reductase. The following applies: human, in vivo.

The values below come from patent EP1036783B1 (MERCK & CO. INC., priority 1999, dated 2000).

The structures appear in SMILES notation.

Turning to `CCC(C)(C)C(=O)O[C@H]1C[C@@H](C)C=C2C=C[C@H](C)[C@H](CC[C@@H](O)C[C@@H](O)CC(=O)O)[C@H]21` [SVA, dihydroxy open acid simvastatin], the “effect of itraconazole measured as the unchanged drug” value in the series “clinical” is on record as 1.5 fold. Further, the Tmax stood at 4.1 h in the series “clinical” (SVA in plasma) and 4.1 ± 2.1 h in “clinical” (Simyastatin Acid in plasma). In addition, the half-life is 402 min in “clinical” (t1/2, SV in plasma); 138 min in the series “clinical” (t1/2, SVA in plasma); 138 ± 30 min in the series “clinical” (t1/2, Simyastatin Acid in plasma). Further, the “lactonization of dihydroxy open acid simvastatin or its active metabolites” value in the series on HMG-CoA reductase [1] was “occurred minimally”. The “Cmax, Active Inhibitors” value with HMG-CoA reductase [2] is recorded as 5.7 = 3.0 ng eq/mL. Also, the “Tmax, Active HMG-CoA reductase inhibitors” value in the series on HMG-CoA reductase [2] is recorded as 3.6 (2.5) hr. For the same molecule, the “change by itraconazole pre-treatment in AUC and Cmax of HMG-CoA reductase inhibitory activity (total or active)” value in the series with HMG-CoA reductase [2] is 1.3-1.5 fold.

By Tmax is commonly meant the time at which the peak concentration occurs. What is called half-life is the time in which the quantity being followed falls by half. High values mean slow loss, low ones fast loss.
